ChEMBL document CHEMBL1909046, “DrugMatrix in vitro pharmacology data”

These compounds were tested against Sodium-dependent noradrenaline transporter (Homo sapiens, UniProt P23975) (assay: DRUGMATRIX: Norepinephrine Transporter radioligand binding (ligand: [125I] RTI-55)). Details: mdck; Not Active = under 50% inhibition at 10 µM.
Format: cell membranes, MDCK, Membrane

Chain of Sodium-dependent noradrenaline transporter (P23975 whole entry): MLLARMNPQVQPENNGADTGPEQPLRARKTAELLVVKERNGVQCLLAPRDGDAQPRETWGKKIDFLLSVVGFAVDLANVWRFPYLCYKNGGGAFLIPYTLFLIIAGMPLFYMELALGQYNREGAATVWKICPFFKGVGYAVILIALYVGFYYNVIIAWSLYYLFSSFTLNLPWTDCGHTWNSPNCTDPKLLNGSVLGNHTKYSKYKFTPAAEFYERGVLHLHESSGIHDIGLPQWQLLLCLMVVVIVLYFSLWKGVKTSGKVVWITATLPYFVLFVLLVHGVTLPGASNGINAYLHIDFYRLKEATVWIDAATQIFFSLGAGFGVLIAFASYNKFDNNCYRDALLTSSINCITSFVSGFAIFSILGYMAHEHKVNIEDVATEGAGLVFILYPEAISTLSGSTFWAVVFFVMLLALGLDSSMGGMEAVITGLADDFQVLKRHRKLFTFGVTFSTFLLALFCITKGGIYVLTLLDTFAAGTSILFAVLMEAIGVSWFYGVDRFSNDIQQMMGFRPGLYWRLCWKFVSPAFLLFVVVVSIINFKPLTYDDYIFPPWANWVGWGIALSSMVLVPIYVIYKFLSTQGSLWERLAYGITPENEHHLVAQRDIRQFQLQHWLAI

Compound | IC50
CC(=O)[C@@]1(O)CC[C@H]2[C@@H]3CCC4=CC(=O)CC[C@]4(C)[C@H]3CC[C@@]21C [HYDROXYPROGESTERONE] | Not Active
COC1=C(OC)C(=O)C(CCCCCCCCCCO)=C(C)C1=O [IDEBENONE] | Not Active
CC(C)NNC(=O)c1ccncc1 [IPRONIAZID] | Not Active
Cc1c(OCC(F)(F)F)ccnc1C[S+]([O-])c1nc2ccccc2[nH]1 (stereo not given) [LANSOPRAZOLE] | Not Active
O=c1cc(N2CCOCC2)oc2c(-c3ccccc3)cccc12 [LY-294002] | Not Active
COc1ccc2[nH]cc(CCNC(C)=O)c2c1 [MELATONIN] | Not Active
NC(=O)C[S+]([O-])C(c1ccccc1)c1ccccc1 (stereo not given) [MODAFINIL] | Not Active
CCN(CC)CCOCCC1=CCC2CC1C2(C)C (stereo not given) [MYRTECAINE] | Not Active
O=C(O)c1cccnc1Nc1cccc(C(F)(F)F)c1 [NIFLUMIC ACID] | Not Active
O=C(N/N=C/c1ccc([N+](=O)[O-])o1)c1cc([N+](=O)[O-])cc([N+](=O)[O-])c1O [NIFURSOL] | Not Active

These compounds were tested against cGMP-specific 3',5'-cyclic phosphodiesterase (Homo sapiens, UniProt O76074) (assay: DRUGMATRIX: Phosphodiesterase PDE5 enzyme inhibition (substrate: [3H]cGMP + cGMP)). Details: Not Active = under 50% inhibition at 10 µM; read-out: IC50.
Format: tissue-based, Platelet

Compound | IC50 [µM]
O=c1cc(N2CCOCC2)oc2c(-c3ccccc3)cccc12 [LY-294002] | 9.61

Same assay, conditions: platelet; Not Active = under 50% inhibition at 10 µM

Compound | IC50
CC(=O)[C@@]1(O)CC[C@H]2[C@@H]3CCC4=CC(=O)CC[C@]4(C)[C@H]3CC[C@@]21C [HYDROXYPROGESTERONE] | Not Active
COC1=C(OC)C(=O)C(CCCCCCCCCCO)=C(C)C1=O [IDEBENONE] | Not Active
CC(C)NNC(=O)c1ccncc1 [IPRONIAZID] | Not Active
Cc1c(OCC(F)(F)F)ccnc1C[S+]([O-])c1nc2ccccc2[nH]1 (stereo not given) [LANSOPRAZOLE] | Not Active
COc1ccc2[nH]cc(CCNC(C)=O)c2c1 [MELATONIN] | Not Active
NC(=O)C[S+]([O-])C(c1ccccc1)c1ccccc1 (stereo not given) [MODAFINIL] | Not Active
CCN(CC)CCOCCC1=CCC2CC1C2(C)C (stereo not given) [MYRTECAINE] | Not Active
O=C(O)c1cccnc1Nc1cccc(C(F)(F)F)c1 [NIFLUMIC ACID] | Not Active
O=C(N/N=C/c1ccc([N+](=O)[O-])o1)c1cc([N+](=O)[O-])cc([N+](=O)[O-])c1O [NIFURSOL] | Not Active

What follows are compounds tested against T1, Polyunsaturated fatty acid lipoxygenase ALOX15 (Oryctolagus cuniculus, UniProt P12530) (assay: biochemical). Details: reticulocytes.
T1 sequence (P12530 whole entry): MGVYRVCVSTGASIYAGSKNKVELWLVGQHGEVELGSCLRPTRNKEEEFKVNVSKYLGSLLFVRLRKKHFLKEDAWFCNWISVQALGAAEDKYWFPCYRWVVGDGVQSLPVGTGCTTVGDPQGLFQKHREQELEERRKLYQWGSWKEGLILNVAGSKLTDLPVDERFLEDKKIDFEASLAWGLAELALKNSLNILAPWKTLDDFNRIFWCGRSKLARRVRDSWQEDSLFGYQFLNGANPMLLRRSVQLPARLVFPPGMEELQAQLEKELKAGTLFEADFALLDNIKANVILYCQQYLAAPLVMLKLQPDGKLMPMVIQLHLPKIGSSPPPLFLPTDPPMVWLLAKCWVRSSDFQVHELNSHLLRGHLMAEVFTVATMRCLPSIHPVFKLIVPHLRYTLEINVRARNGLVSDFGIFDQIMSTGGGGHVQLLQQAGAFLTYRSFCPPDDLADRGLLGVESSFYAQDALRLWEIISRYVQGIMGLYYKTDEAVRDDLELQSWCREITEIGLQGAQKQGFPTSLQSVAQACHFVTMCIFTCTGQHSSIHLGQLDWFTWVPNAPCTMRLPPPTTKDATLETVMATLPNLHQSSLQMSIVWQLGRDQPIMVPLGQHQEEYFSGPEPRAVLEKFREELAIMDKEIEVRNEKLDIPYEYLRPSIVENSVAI
Format: tissue-based, Reticulocytes

Compound | IC50
CC(=O)[C@@]1(O)CC[C@H]2[C@@H]3CCC4=CC(=O)CC[C@]4(C)[C@H]3CC[C@@]21C [HYDROXYPROGESTERONE] | Not Active
COC1=C(OC)C(=O)C(CCCCCCCCCCO)=C(C)C1=O [IDEBENONE] | Not Active
CC(C)NNC(=O)c1ccncc1 [IPRONIAZID] | Not Active
Cc1c(OCC(F)(F)F)ccnc1C[S+]([O-])c1nc2ccccc2[nH]1 (stereo not given) [LANSOPRAZOLE] | Not Active
O=c1cc(N2CCOCC2)oc2c(-c3ccccc3)cccc12 [LY-294002] | Not Active
COc1ccc2[nH]cc(CCNC(C)=O)c2c1 [MELATONIN] | Not Active
NC(=O)C[S+]([O-])C(c1ccccc1)c1ccccc1 (stereo not given) [MODAFINIL] | Not Active
CCN(CC)CCOCCC1=CCC2CC1C2(C)C (stereo not given) [MYRTECAINE] | Not Active
O=C(O)c1cccnc1Nc1cccc(C(F)(F)F)c1 [NIFLUMIC ACID] | Not Active
O=C(N/N=C/c1ccc([N+](=O)[O-])o1)c1cc([N+](=O)[O-])cc([N+](=O)[O-])c1O [NIFURSOL] | Not Active

The compounds below were run against Vasopressin V1a receptor (Homo sapiens, UniProt P37288) (assay: not given). Details: hek293.
Chain of Vasopressin V1a receptor (P37288 whole entry): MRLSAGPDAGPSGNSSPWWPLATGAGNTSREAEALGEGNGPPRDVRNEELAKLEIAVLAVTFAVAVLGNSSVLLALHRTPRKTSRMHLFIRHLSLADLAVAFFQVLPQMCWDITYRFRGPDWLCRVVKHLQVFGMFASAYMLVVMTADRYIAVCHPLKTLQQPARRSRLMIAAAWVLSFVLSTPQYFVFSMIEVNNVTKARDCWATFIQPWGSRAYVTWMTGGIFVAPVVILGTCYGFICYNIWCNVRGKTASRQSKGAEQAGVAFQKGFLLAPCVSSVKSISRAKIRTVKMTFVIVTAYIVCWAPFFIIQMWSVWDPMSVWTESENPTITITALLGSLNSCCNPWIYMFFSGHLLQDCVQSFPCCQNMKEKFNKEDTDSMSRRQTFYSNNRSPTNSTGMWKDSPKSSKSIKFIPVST
Format: cell membranes, Membrane

Compound | IC50
CC(=O)[C@@]1(O)CC[C@H]2[C@@H]3CCC4=CC(=O)CC[C@]4(C)[C@H]3CC[C@@]21C [HYDROXYPROGESTERONE] | Not Active
COC1=C(OC)C(=O)C(CCCCCCCCCCO)=C(C)C1=O [IDEBENONE] | Not Active
CC(C)NNC(=O)c1ccncc1 [IPRONIAZID] | Not Active
Cc1c(OCC(F)(F)F)ccnc1C[S+]([O-])c1nc2ccccc2[nH]1 (stereo not given) [LANSOPRAZOLE] | Not Active
O=c1cc(N2CCOCC2)oc2c(-c3ccccc3)cccc12 [LY-294002] | Not Active
COc1ccc2[nH]cc(CCNC(C)=O)c2c1 [MELATONIN] | Not Active
NC(=O)C[S+]([O-])C(c1ccccc1)c1ccccc1 (stereo not given) [MODAFINIL] | Not Active
CCN(CC)CCOCCC1=CCC2CC1C2(C)C (stereo not given) [MYRTECAINE] | Not Active
O=C(O)c1cccnc1Nc1cccc(C(F)(F)F)c1 [NIFLUMIC ACID] | Not Active
O=C(N/N=C/c1ccc([N+](=O)[O-])o1)c1cc([N+](=O)[O-])cc([N+](=O)[O-])c1O [NIFURSOL] | Not Active

These compounds were tested against T2, Cathepsin G (Homo sapiens, UniProt P08311) (assay: not given). Details: neutrophil.
T2 sequence (P08311 whole entry): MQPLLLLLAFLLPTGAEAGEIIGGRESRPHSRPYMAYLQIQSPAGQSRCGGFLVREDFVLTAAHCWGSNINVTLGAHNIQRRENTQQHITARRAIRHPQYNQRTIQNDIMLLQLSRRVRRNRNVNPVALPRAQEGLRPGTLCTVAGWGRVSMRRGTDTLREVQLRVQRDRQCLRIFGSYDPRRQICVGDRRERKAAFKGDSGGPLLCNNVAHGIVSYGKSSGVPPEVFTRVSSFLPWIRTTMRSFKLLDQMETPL
Format: tissue-based

Compound | IC50
CC(=O)[C@@]1(O)CC[C@H]2[C@@H]3CCC4=CC(=O)CC[C@]4(C)[C@H]3CC[C@@]21C [HYDROXYPROGESTERONE] | Not Active
COC1=C(OC)C(=O)C(CCCCCCCCCCO)=C(C)C1=O [IDEBENONE] | Not Active
CC(C)NNC(=O)c1ccncc1 [IPRONIAZID] | Not Active
Cc1c(OCC(F)(F)F)ccnc1C[S+]([O-])c1nc2ccccc2[nH]1 (stereo not given) [LANSOPRAZOLE] | Not Active
O=c1cc(N2CCOCC2)oc2c(-c3ccccc3)cccc12 [LY-294002] | Not Active
COc1ccc2[nH]cc(CCNC(C)=O)c2c1 [MELATONIN] | Not Active
NC(=O)C[S+]([O-])C(c1ccccc1)c1ccccc1 (stereo not given) [MODAFINIL] | Not Active
CCN(CC)CCOCCC1=CCC2CC1C2(C)C (stereo not given) [MYRTECAINE] | Not Active
O=C(O)c1cccnc1Nc1cccc(C(F)(F)F)c1 [NIFLUMIC ACID] | Not Active
O=C(N/N=C/c1ccc([N+](=O)[O-])o1)c1cc([N+](=O)[O-])cc([N+](=O)[O-])c1O [NIFURSOL] | Not Active

Each compound was assayed against Mu-type opioid receptor (Homo sapiens, UniProt P35372) (assay: DRUGMATRIX: Opiate mu (OP3, MOP) radioligand binding (ligand: [3H] Diprenorphine)). Details: cho-k1; Not Active = under 50% inhibition at 10 µM.
Chain of Mu-type opioid receptor (P35372 whole entry): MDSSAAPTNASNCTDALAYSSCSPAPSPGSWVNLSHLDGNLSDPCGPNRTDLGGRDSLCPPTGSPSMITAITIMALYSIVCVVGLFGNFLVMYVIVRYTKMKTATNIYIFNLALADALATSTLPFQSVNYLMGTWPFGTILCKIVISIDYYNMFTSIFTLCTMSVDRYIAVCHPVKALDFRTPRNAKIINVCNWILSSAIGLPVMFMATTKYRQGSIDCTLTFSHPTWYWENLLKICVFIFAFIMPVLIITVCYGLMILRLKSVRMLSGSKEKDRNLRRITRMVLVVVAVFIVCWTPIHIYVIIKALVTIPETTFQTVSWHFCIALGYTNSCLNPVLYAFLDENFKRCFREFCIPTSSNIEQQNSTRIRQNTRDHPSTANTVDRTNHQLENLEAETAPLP
Format: cell membranes, CHO-K1, Membrane

Compound | IC50
CC(=O)[C@@]1(O)CC[C@H]2[C@@H]3CCC4=CC(=O)CC[C@]4(C)[C@H]3CC[C@@]21C [HYDROXYPROGESTERONE] | Not Active
COC1=C(OC)C(=O)C(CCCCCCCCCCO)=C(C)C1=O [IDEBENONE] | Not Active
CC(C)NNC(=O)c1ccncc1 [IPRONIAZID] | Not Active
Cc1c(OCC(F)(F)F)ccnc1C[S+]([O-])c1nc2ccccc2[nH]1 (stereo not given) [LANSOPRAZOLE] | Not Active
O=c1cc(N2CCOCC2)oc2c(-c3ccccc3)cccc12 [LY-294002] | Not Active
COc1ccc2[nH]cc(CCNC(C)=O)c2c1 [MELATONIN] | Not Active
NC(=O)C[S+]([O-])C(c1ccccc1)c1ccccc1 (stereo not given) [MODAFINIL] | Not Active
CCN(CC)CCOCCC1=CCC2CC1C2(C)C (stereo not given) [MYRTECAINE] | Not Active
O=C(O)c1cccnc1Nc1cccc(C(F)(F)F)c1 [NIFLUMIC ACID] | Not Active
O=C(N/N=C/c1ccc([N+](=O)[O-])o1)c1cc([N+](=O)[O-])cc([N+](=O)[O-])c1O [NIFURSOL] | Not Active

What follows are compounds tested against T3, Alpha-2C adrenergic receptor (Homo sapiens, UniProt P18825) (assay: DRUGMATRIX: Adrenergic Alpha-2C radioligand binding (ligand: [3H] MK-912)). Details: sf9.
T3 sequence (P18825 whole entry): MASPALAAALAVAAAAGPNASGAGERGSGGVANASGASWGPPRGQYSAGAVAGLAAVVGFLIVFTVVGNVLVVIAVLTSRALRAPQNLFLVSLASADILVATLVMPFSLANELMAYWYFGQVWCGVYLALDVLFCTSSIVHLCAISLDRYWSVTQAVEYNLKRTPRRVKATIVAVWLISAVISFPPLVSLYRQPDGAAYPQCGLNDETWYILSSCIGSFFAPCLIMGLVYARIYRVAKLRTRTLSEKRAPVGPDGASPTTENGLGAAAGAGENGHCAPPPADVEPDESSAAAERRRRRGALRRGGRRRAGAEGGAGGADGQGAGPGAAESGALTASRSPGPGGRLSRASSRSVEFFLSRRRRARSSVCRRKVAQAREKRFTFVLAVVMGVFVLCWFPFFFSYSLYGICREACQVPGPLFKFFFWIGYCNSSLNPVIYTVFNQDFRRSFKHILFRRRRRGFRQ
Format: cell membranes, Sf9, Membrane

Compound | IC50
CC(=O)[C@@]1(O)CC[C@H]2[C@@H]3CCC4=CC(=O)CC[C@]4(C)[C@H]3CC[C@@]21C [HYDROXYPROGESTERONE] | Not Active
COC1=C(OC)C(=O)C(CCCCCCCCCCO)=C(C)C1=O [IDEBENONE] | Not Active
CC(C)NNC(=O)c1ccncc1 [IPRONIAZID] | Not Active
Cc1c(OCC(F)(F)F)ccnc1C[S+]([O-])c1nc2ccccc2[nH]1 (stereo not given) [LANSOPRAZOLE] | Not Active
O=c1cc(N2CCOCC2)oc2c(-c3ccccc3)cccc12 [LY-294002] | Not Active
COc1ccc2[nH]cc(CCNC(C)=O)c2c1 [MELATONIN] | Not Active
NC(=O)C[S+]([O-])C(c1ccccc1)c1ccccc1 (stereo not given) [MODAFINIL] | Not Active
CCN(CC)CCOCCC1=CCC2CC1C2(C)C (stereo not given) [MYRTECAINE] | Not Active
O=C(O)c1cccnc1Nc1cccc(C(F)(F)F)c1 [NIFLUMIC ACID] | Not Active
O=C(N/N=C/c1ccc([N+](=O)[O-])o1)c1cc([N+](=O)[O-])cc([N+](=O)[O-])c1O [NIFURSOL] | Not Active
